The values below come from patent US4371521A, “Pharmaceutical composition for retarding excessive platelet aggregation” (priority 1973, dated 1983).

Read-outs that look alike come from different tables or passages of the source. A value given as a limit tells only on which side of the number the result lay.

One data set relates to creatine-phosphokinase. Conditions: various buffers and pHs, cited from earlier work.
Data set [1] is described as follows: Pharmacological results of the single components. Conditions: in the absence of the other component.
A short description of data set [2]: Acute toxicity (LD50) in male albino mice. Conditions: mouse, in vivo, Tainter and Miller, ± standard deviation. Format: in vivo.
The test system of a further data set is male albino mice. The data set is described as follows: Acute toxicity (LD50) in male albino mice. Type of data set: in vivo. Conditions: Tainter and Miller, ± standard deviation.

With `Nc1ncnc2c1ncn2[C@@H]1O[C@H](COP(=O)(O)OP(=O)(O)O)[C@@H](O)[C@H]1O` [ADP, adenosine-diphosphate, reference compound], the Rmax in the data set with creatine-phosphokinase was 1.7 μmols/minute/μg of protein. Besides, the Km in the data set on creatine-phosphokinase (read-out: Michaelis constant for ADP) is 800 to 1000 µM.

A word on the LD50: it is the dose expected to kill half of the subjects tested. Low readings indicate greater toxicity, high ones lower toxicity. As to `CN(CC(=O)O)C(=N)NP(=O)(O)O` [CP, creatine-phosphate], the “pharmacological results of the component alone” value in data set [1] was “Neither the substrate (CP) alone (i.e. in the absence of the administration of the enzyme which brings about its conversion) nor the enzyme (CPK) alone gives the pharmacological results”. For the same molecule, the LD50 in data set [2] was found to be 3500 ± 120 mg/kg. Also, the Rmax in the data set with creatine-phosphokinase is given as 1.1 μmols/minute/μg of protein. Further, in the data set on creatine-phosphokinase (read-out: Michaelis constant for creatine-phosphate), the Km is 5000 µM.

In the case of “CPK: enzyme found in striated and cardiac muscle and cerebral tissue; protein molecule of molecular weight 8.1×10^4; crystalline form from rabbit skeletal muscle”, in data set [1], the “pharmacological results of the component alone” value is given as “Neither the substrate (CP) alone (i.e. in the absence of the administration of the enzyme which brings about its conversion) nor the enzyme (CPK) alone gives the pharmacological results”. This molecule also came in with an LD50 in the data set on male albino mice of over 100 mg/kg.
